Measurements taken from patent US12576083B2, “Combinational therapy of LSD1 inhibitors with P21 activators in the treatment of cancer” (Istituto Europeo di Oncologia S.r.l., priority 2017, dated 2026).
Entries after “also recorded” stand apart in the source; their conditions may differ.

Tests used:
[1] = system: small cell lung carcinoma NCI-H69 cells; experiment: Cell cycle analysis of NCI-H69 cells; format: cell-based; settings: 1 week treatment
Method: (§1) FIGS. 8A-8D. […] (FIG. 8B) Relative proliferation of NCI-H69 cells infected with SCR (control) or p21 shRNA treated with MC2580. (FIG. 8C) Summary of cell-cycle status of NCI-H69 cells following 10 days treatment with indicated inhibitors. (FIG. 8D) Immunoblot of P21 in MC2580-treated NCI-H69 cells. (SCR=Scramble shRNA, NI=Not Infected, LSD1i=LSD1 inhibitor=MC2580).
(§2) NCI-H69 cells were treated with p21-shRNA, scramble shRNA (SCR), LSD1 inhibitor MC2580, p21-shRNA plus MC2580, scramble shRNA (SCR) plus MC2580. Non-infected (NI) NCI-H69 cells were included as control. The proliferation of the treated cells were quantified before treatment and post-treatment from day 2, day 4, day 6, day 8, and day 10 (FIG. 8B). Cell cycle analysis were performed following the 1 week treatment.

[2] = system: p21 gene; experiment: Chromosome Conformation Capture assays (3C-qPCR) in UF1 and NB4 cells; format: cell-based; settings: UF1 and NB4 cells, 12, 24, or 36 hours
Method: FIG. 27 depicts results from chromosome conformation capture assays (3C-qPCR) performed with chromatin from UF1 and NB4 cells that were treated for indicated times with the LSD1 inhibitor MC2580. (NT: not treated).
Luciferase reporter assays were performed to measure the activity of enhancer 1 (“E1”) and enhancer 1 (“E2”) of the p21 gene promoter in 293T cells and the results are depicted in FIG. 26. The pGL3 plasmid without the enhancer region (empty) was used as a negative control. Chromosome Conformation Capture assays (3C-qPCR) were performed with chromatin from UF1 and NB4 cells that were treated with the LSD1 inhibitor MC2580 for 12, 24, or 36 hours and the results are depicted in FIG. 27. Untreated cells (“Neg”) were included as control.

[3] = system: p21; experiment: Western-blot of p21 in Kasumi cells; format: cell-based
Excerpt: FIGS. 7A-7F. […] (FIG. 7C) Relative proliferation of Kasumi cells infected with SCR (control) or p21 shRNA treated with MC2580. (FIG. 7D) Representative light micrograph show Wright-Giemsa staining of Kasumi cells after 1 week treatment with indicated inhibitors. (FIG. 7E) summary of cell-cycle status of Kasumi cells following 1 week treatment with indicated inhibitors. (FIG. 7F) Immunoblot of P21 in MC2580-treated Kasumi cells. (SCR=Scramble shRNA, NI=Not Infected, LSD1i=LSD1 inhibitor=MC2580).
as §2, with “Kasumi” for “NCI-H69”, “4,” for “4, day 6, day 8,”, “7” for “10”, “7C). The cells following the 1 week treatment were analyzed under light micrographs using Wright-Giemsa staining (FIG. 7D).” for “8B).”

[4] = system: NB4 cells; experiment: NB4 cells treated with HDAC inhibitors with or without MC2580: proliferation, staining, cell cycle analysis; format: cell-based; settings: versus untreated control cells (Scr-DMSO), 1 week treatment
Excerpt: FIGS. 10A-10D. […] (FIG. 10A) Relative proliferation of NB4 cells infected with SCR (control) or p21 shRNA and treated with HDAC inhibitor and/or MC2580. (FIG. 10B and FIG. 10C) Representative light micrograph show Wright-Giemsa staining of NB4 cells infected with SCR (control) or p21 shRNA and treated with HDAC inhibitor and/or MC2580. (FIG. 10D) Summary of cell-cycle status of NB4 cells infected with SCR (control) or p21 shRNA and treated with HDAC inhibitor and/or MC2580. (SCR=Scramble shRNA, NI=Not Infected, LSD1i=LSD1 inhibitor=MC2580).
NB4 cells were treated with HDAC inhibitors, trichostatin A (TSA) and suberoylanilide hydroxamic acid (SAHA), in combination with p21-shRNA or scramble shRNA (SCR), with or without LSD1 inhibitor MC2580. NB4 cells with p21 knock-down without HDAC inhibitor treatment (p21KD-DMSO), NB4 cells without p21 knock-down and without HDAC inhibitor treatment (Scr-DMSO) were included as control. The proliferation of the treated cells were quantified before treatment and post-treatment from day 2, day 4, and day 6 (FIG. 10A). The treated cells were analyzed under light micrographs using Wright-Giemsa staining (FIG. 10B and FIG. 10C). Cell cycle analysis were performed following the 1 week treatment.

[5] = system: p21; experiment: Western-blot of p21 in NCI-H69 cells; format: cell-based
Method: as §1, §2

[6] = system: Acute promyelocytic leukemia (APL) NB4 cells; experiment: NB4 cells treated with MC2580: proliferation, Wright-Giemsa staining, serial replating CFU assay; format: cell-based; settings: 2 μM, 6 days, DMSO control
Method: FIGS. 1A-1C. […] (FIG. 1A) Relative proliferation of NB4 APL cells treated with MC2580 ([…]) and RA ([…]) for indicated times (DMSO serves as control). (FIG. 1B) Representative light micrographs show Wright-Giemsa staining of NB4 cell after treatment for 6 days. (DMSO serves as a control). (FIG. 1C) Analysis of the proliferative potential of treated NB4 cells by serial replating assay. (DMSO serves as control). (RA high(h)=retinoic acid, 1 μM, LSD1i=LSD1 inhibitor=MC2580).
Acute promyelocytic leukemia (APL) NB4 cells were treated with 2 μM LSD1 inhibitor MC2580, 1 μM retinoic acid (RA), and DMSO (control) for 6 days. The proliferation of the treated cells were quantified before treatment and during each of the 6 days (FIG. 1A). The treated cells were analyzed under light micrographs using Wright-Giemsa staining (FIG. 1B). The proliferation potential of the treated cells were analyzed by serial replating and Colony-Forming Unit (CFU) Assay (FIG. 1C).

[7] = system: primary human melanoma cell lines (MMC-27B, MMC-49, MMC-936, MMC-35, MMC-38B, MMC-34); experiment: Proliferation of six primary human melanoma cell lines with or without MC2580; format: cell-based; settings: MC2580 2 μM, 6 days, versus cell lines having a shorter doubling time
Method: FIG. 14 depicts the proliferation of six primary human melanoma cell lines (MMC-27B, MMC-49, MMC-936, MMC-35, MMC-38B, MMC-34) over 6 days with or without treatment of LSD1 inhibitor MC2580 (2 μM) was analyzed. “MC” stands for MC2580 treated cells. “DMSO” stands for control cells treated with DMSO.
The proliferation of six primary human melanoma cell lines (MMC-27B, MMC-49, MMC-936, MMC-35, MMC-38B, MMC-34) over 6 days with or without treatment of an LSD1 inhibitor (MC2580) was analyzed. “MC” stands for MC2580 treated cells. Control cells (“DMSO”) were treated with DMSO.

[8] = system: CD11b gene; experiment: CD11b gene expression in UF1 cells (mRNA normalized against GAPDH); format: cell-based
Method: (§3) FIGS. 2A-2E. […] (FIG. 2A) Relative proliferation of UF1 cells treated with MC2580 (2 μM) and/or retinoic acid (10 nM) for 1 week. (FIG. 2B) Representative light micrograph show Wright-Giemsa staining of UF1 cell after treatment for 1 week. […] Values are normalized against GAPDH. (FIG. 2D) Immunoblot of PML-RARα in treated UF1 cells with indicated inhibitors. LSD1 inhibitors induces differentiation without PML-RARα degradation. (tubulin serves as control). (FIG. 2E) summary of cell-cycle status of UF1 cells following 1 week treatment with indicated inhibitors. (retinoic acid low(l)=10 nM, LSD1i=LSD1 inhibitor=MC2580).
(§4) Acute promyelocytic leukemia (APL) UF1 cells were treated with 2 μM LSD1 inhibitor MC2580, 10 nM retinoic acid (RA), 2 μM LSD1 inhibitor MC2580 plus 10 nM RA, and DMSO (control) for 7 days. The proliferation of the treated cells were quantified before treatment and post-treatment from each of day 2 to day 7 (FIG. 2A). The cells following the 1 week treatment were analyzed under light micrographs using Wright-Giemsa staining (FIG. 2B). The LSD1-inhibition induced expression of CD11b gene expression were analyzed. The mRNA of CD11b of the treated cells under each condition were normalized using GAPDH (FIG. 2C). PML-RARα protein level in the treated cells was analyzed by immune-blotting using an antibody against PML-RARα. Immuno-blotting of tubulin was used as loading control. […]

[9] = system: p21; experiment: p21 expression (immunoblotting) in MMC-38B and MMC-34 melanoma cells; format: cell-based, human; settings: MMC-38B and MMC-34, rescued by p21 knock-down
Method: FIG. 16C depicts the p21 expression level in melanoma cells analyzed in FIG. 16A.
(§5) MMC-38B and MMC-34 cells were treated with p21-shRNA (“P21KD-DMSO”), scramble shRNA (“SCR-DMSO”), scramble shRNA plus LSD1 inhibitor (MC2580) (“SCR-LSD1i”), or p21-shRNA plus MC2580 (“P21KD-LSD1i”). Tubulin was used as a loading control.

[10] = system: MMC-38B and MMC-34 cells; experiment: Cell cycle analysis of MMC-38B and MMC-34 melanoma cells; format: cell-based, human; settings: MMC-38B and MMC-34, rescued by p21 knock-down
Method: FIG. 16B depicts cell-cycle status of melanoma cells analyzed in FIG. 16A.
as §5

[11] = system: Kasumi cells; experiment: Cell cycle analysis of Kasumi cells; format: cell-based; settings: 1 week treatment
Method: as §2, with “Kasumi” for “NCI-H69”, “4,” for “4, day 6, day 8,”, “7” for “10”, “7C). The cells following the 1 week treatment were analyzed under light micrographs using Wright-Giemsa staining (FIG. 7D).” for “8B).”

[12] = system: PML-RARα; experiment: Immunoblot of PML-RARα in treated UF1 cells; format: cell-based; settings: tubulin loading control
Method: as §3, §4

[13] = system: p21; experiment: p21 protein (Western-blot) and p21 gene expression in UF1 cells; format: cell-based
Method: FIGS. 6A-6B. LSD1 inhibition leads to further upregulation of P21 RNA and protein level but not in P21KD cells. (FIG. 6A) Immunoblot of P21 in MC2580-treated UF1 cells. […] (SCR=Scramble shRNA, NI=Not Infected, LSD1i=LSD1 inhibitor=MC2580).
UF1 cells were treated with p21-shRNA, scramble shRNA (SCR), LSD1 inhibitor MC2580, p21-shRNA plus MC2580, scramble shRNA (SCR) plus MC2580. Non-infected (NI) UF1 cells were included as control. Immuno-blotting of tubulin was used as loading control.

[14] = system: UF1 cells; experiment: Cell cycle analysis of UF1 cells; format: cell-based; settings: 1 week treatment
Method: Acute promyelocytic leukemia (APL) UF1 cells were treated with 2 μM LSD1 inhibitor MC2580, 10 nM retinoic acid (RA), 2 μM LSD1 inhibitor MC2580 plus 10 nM RA, and DMSO (control) for 7 days. The proliferation of the treated cells were quantified before treatment and post-treatment from each of day 2 to day 7 (FIG. 2A). The cells following the 1 week treatment were analyzed under light micrographs using Wright-Giemsa staining (FIG. 2B). The LSD1-inhibition induced expression of CD11b gene expression were analyzed. The mRNA of CD11b of the treated cells under each condition were normalized using GAPDH (FIG. 2C). PML-RARα protein level in the treated cells was analyzed by immune-blotting using an antibody against PML-RARα. Immuno-blotting of tubulin was used as loading control. (FIG. 2D). […] Cell cycle analysis were performed following the 1 week treatment. […] (FIG. 2E).
as §2, with “UF1” for “NCI-H69”, “from each of” for “from”, “2 to” for “2,”, “7” for “4, day 6, day 8, and day 10”, “5C). The cells following the 1 week treatment were analyzed under light micrographs using Wright-Giemsa staining (FIG. 5D).” for “8B).”, “treatment. […] (FIG. 5E).” for “treatment.”

[15] = system: MMC-38B and MMC-34 cells; experiment: Proliferation of MMC-38B and MMC-34 melanoma cells with shRNA and MC2580; format: cell-based, human; settings: MMC-38B and MMC-34, 6 days, rescued by p21 knock-down
Method: FIG. 16A depicts relative proliferation of melanoma cells (MMC-38B and MMC-34) that were treated with p21-shRNA (“P21KD-DMSO”), scramble shRNA (“SCR-DMSO”), scramble shRNA plus LSD1 inhibitor MC2580 (“SCR-LSD1i”), or p21-shRNA plus MC2580 (“P21KD-LSD1i”). Data are presented as mean of triplicates±SD.
as §5

[16] = system: Acute promyelocytic leukemia (APL) UF1 cells; experiment: UF1 cells treated with MC2580: proliferation and Wright-Giemsa staining; format: cell-based; settings: 2 μM, 7 days, DMSO control
Method: as §3, §4

SMILES: NC1CC1c1ccc(NC(=O)C(Cc2ccccc2)NC(=O)OCc2ccccc2)cc1 (centres unmarked) [MC2580]
- NCI-H69 cells arrested at the G0/G1 phase [1]: More NCI-H69 cells were arrested at the G0/G1 phase
- looping of E1 and E2 enhancer regions to the transcription start site of the p21 gene [2]: induces dynamic looping
- p21 protein level in Kasumi cells [3]: increased
- NB4 cells arrested at the G0/G1 phase, LSD1 inhibitor alone [4]: More NB4 cells were arrested at the G0/G1 phase
- p21 protein level in NCI-H69 cells [5]: increased
- sensitivity of NB4 cells to LSD1 inhibitor [6]: resistant to LSD1 inhibition; also recorded: largely insensitive
- proliferation of slow-cycling melanoma cell lines (MMC-38B, MMC-34) [7]: more affected
- expression of the CD11b gene (myeloid differentiation marker) [8]: induces expression of the CD11b gene
- p21 expression in human primary melanoma cells [9]: increase of p21 expression
- cell cycle of human primary melanoma cells [10]: cell cycle arrest
- Kasumi cells arrested at the G0/G1 phase [11]: More Kasumi cells were arrested at the G0/G1 phase
- UF1 cell differentiation and PML-RARα degradation [12]: induces UF1 cells differentiation without PML-RARα degradation
- p21 gene (CDKN1A) expression in UF1 cells [13]: induces p21 expression; also recorded: expressed at a higher level
- p21 protein level in UF1 cells ([13]; Western-blot, tubulin loading control): increased
- UF1 cells arrested at the G0/G1 phase [14]: More UF1 cells were arrested at the G0/G1 phase
- cell growth of human primary melanoma cells [15]: cell growth inhibition
- sensitivity of UF1 cells to LSD1 inhibitor [16]: sensitive
